Consider four compounds from US20060263453A1, “Methods and compositions for modulating glutamate dehydrogenase” (priority 2004, published 2006).

One data set deals with islets. Description: [U-14C]-glutamine oxidation in islets. The data set is classed as cell-based, rat. As for the experimental part:
In a first experiment, a batch of 100 islets were incubated with glucose-free Krebs-Ringer bicarbonate buffer, as described herein, containing 20 μM EGCG or 20 μM EGC and 2 mM glutamine for 60 minutes. The islets were then incubated in the presence of varying concentrations of BCH (shown in FIG. 7A) for 60 minutes, and for an additional 60 minutes in the presence of 2 mCi [U-^14C]-glutamine (NEN-Life Science Products, UK). Next, [U-^14C]-glutamine oxidation in the incubated islets was measured. A trap filter was placed in each tightly sealed glass tube of the perifusion apparatus to collect the ^14CO2 produced by the islets, and the amount of radioactivity was determined by liquid scintillation counting. The results are summarized in FIG. 7A, and are presented as means±S.E. from 4 separate experiments. […] The islets were then incubated in the presence of 10 mM BCH (or no BCH—to measure “baseline” glutamine oxidation levels) for 60 minutes. The islets were then incubated for an additional 60 minutes in the presence of 2 mCi [U-^14C]-glutamine (NEN-Life Science Products, UK). Next, [U-^14C]-glutamine oxidation in the incubated islets was measured, as described above.

The conditions of data set [1]: ethanol, DMSO, dimethyl formamide; cited from earlier work.
A further data set addresses T1, Bovine GDH (bGDH) (Bos taurus, UniProt P00366).
T1 construct: purchased Sigma Aldrich Chemical Company (St. Louis, Mo.)
Description: reductive amination reaction catalyzed by bovine GDH (NADH absorbance at 340 nm). The data set is classed as biochemical. To be noted: FIG. 1A. The method, then: In this Example, the effects of epigallocatechin gallate (EGCG), epigallocatechin (EGC), epicatechin gallate (ECG), and epicatechin (EC) from Camellia sinensis on GDH activity were tested. Bovine GDH (bGDH) was used in this Example, which was obtained as an aqueous (NH4)2SO4 suspension from Sigma Aldrich Chemical Company (St. Louis, Mo.).
First, aliquots of GDH were extensively dialyzed against 0.1M sodium phosphate buffer, pH 7.0, which contained 1 mM ethylenediaminetetraacetic acid (EDTA). The enzyme concentrations were adjusted to 1 mg/ml and the amount of enzyme added to the reaction mixture, for kinetic analysis, was adjusted to yield optimal steady state velocity measurements. All solutions were made immediately prior to use. Enzyme assays were performed by monitoring reduced coenzyme absorbance at 340 nm using a Shimadzu UV-1601 spectrophotometer. The reductive amination reactions were performed in 3 mL volumes at pH 7.0 in the presence of 0.1 mM nicotinamide adenine dinucleotide (NADH), 50 mM NH4Cl, and 5 mM 2-oxoglutarate. The rate of NADH oxidation was calculated using an extinction coefficient of 6.22 mM^−1 cm^−1.

Data set [2] concerns rat islets. The data set can be described thus: BCH-stimulated insulin secretion and oxygen consumption in perifused islets. The data set is classed as cell-based, Wistar rat. To be noted: 20 μM. As for the experimental part:
In this Example, the effects of EGCG and EGC on LSIS were measured, while simultaneously monitoring respiration rates. More particularly, the effects of EGCG (20 μM) and EGC (20 μM) on BCH-stimulated insulin secretion were measured. First, 1000 adult male Wistar rat islets were isolated as described above and were cultured on a glass perfusion chamber in 10 mM glucose for 3 days. Next, the islets were perifused in an oxygen consumption measurement apparatus containing BCH, along with 0 μM EGCG and 0 μM EGC, 20 μM EGCG, or 20 μM EGC. The perifusion apparatus used in these Examples consisted of a peristaltic pump, a water bath (37° C.), a gas exchanger (artificial lung: media flowed through the thin-walled silastic tubing loosely coiled in a glass jar that contained 20% O2 and 5% CO2 balanced with N2), and fraction collector. All transfer lines were insulated. After the system was provided with 20 μM EGCG or 20 μM EGC, oxygen partial pressure was recorded every 10 seconds by phosphorescence lifetimes of an oxygen-sensitive porphyrin (palladium-mesotetra; 4-carboxyphenyl porphyrin dendrimer). The dye molecules were excited with pulses at 524 nm from a UV lead and emission was measured at 690 nm. The inflow oxygen tension was measured in the absence of islets in the chamber before and after each experiment. The perifusate was a Krebs buffer (pH 7.4) containing 2.2 mM Ca^2+, 1% bovine serum albumin equilibrated with 20% O2 and 5% CO2 balanced with N2. The flow rate was […] and samples were collected every 2 minutes for insulin measurements by radioimmunoassay. The results are summarized in FIG. 6, and are presented as means±S.E. for 1000 islets from 3 separate experiments for EGCG (and from 1 experiment for EGC). Due to the high density of data, S.E. is only shown in every 20 samples.

Data set [3] concerns rat islets. Description: glucose stimulated insulin secretion (GSIS), short run-down (50 minutes), glucose ramp. In kind it is cell-based. Particulars: 20 μM, FIGS. 8A and 8B. The method, then: In this Example, the effect of EGCG on glucose stimulated insulin secretion (GSIS) was examined. Isolated rat islets were cultured with 20 mM glucose (FIG. 8A) and 10 mM glucose (FIG. 8B) for 3 days, then perifused in the absence of glucose for 50 minutes and in the presence of 0 μM EGCG; 20 μM EGCG; or 20 μM EGC. Next, the islets were stimulated by a glucose ramp (0 to 25 mM, 0.5 mM/minute). Finally, the islets were exposed to 30 mM KCl. Insulin levels were measured every minute by radioimmunoassay. The results shown in FIG. 8A are presented as means±S.E. for 100 islets from 3 separate experiments (and means±S.E. for 100 islets from 1 experiment for FIG. 8B).

Data set [4] has as its system rat islets. Description: glucose stimulated insulin secretion in 120 minute run-down islets. In kind it is cell-based. As for the experimental part: Under brief “run-down” conditions used for the above GSIS analysis, where glucose was removed from the cells for only […], the levels of high-energy metabolites (i.e., GTP and ATP) have not been depleted and these effectively shut down GDH activity. This, in turn, eliminated any effect GDH might have on insulin secretion. Therefore, the effects of EGCG were also tested on […] that had been “run-down” for a longer period of time (120 minutes) prior to glucose stimulation (FIG. 11). Specifically, isolated rat islets were cultured with 10 mM glucose for 3 days and then perifused in the absence of glucose and in the presence of 0 or 20 μM EGCG (or 20 μM EGC) for “run-down” periods of 120 minutes prior to stimulation with a glucose ramp (0 to 25 mM, 0.5 mM/minute). Finally, islets were exposed to 30 mM KCl. The insert highlighted the insulin secretion from time=120 minutes to 140 minutes.

T1 sequence (P00366 58-558): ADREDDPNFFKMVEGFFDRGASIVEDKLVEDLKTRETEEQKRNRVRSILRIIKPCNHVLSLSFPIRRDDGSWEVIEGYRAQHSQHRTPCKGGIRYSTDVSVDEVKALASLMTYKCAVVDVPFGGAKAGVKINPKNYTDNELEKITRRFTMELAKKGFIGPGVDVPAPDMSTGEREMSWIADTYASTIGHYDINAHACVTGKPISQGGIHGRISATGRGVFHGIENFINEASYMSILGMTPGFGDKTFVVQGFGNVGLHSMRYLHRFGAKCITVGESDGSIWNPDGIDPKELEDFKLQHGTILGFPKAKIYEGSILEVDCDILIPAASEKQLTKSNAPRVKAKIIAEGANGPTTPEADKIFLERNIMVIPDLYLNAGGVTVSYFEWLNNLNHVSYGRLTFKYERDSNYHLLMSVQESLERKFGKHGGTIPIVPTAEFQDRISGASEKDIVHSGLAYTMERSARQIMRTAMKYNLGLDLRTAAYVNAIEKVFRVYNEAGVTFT

As for `NC1(C(=O)O)CC2CCC1C2` (stereo not drawn) [BCH, beta-2-aminobicyclo[2.2.1]heptane-2-carboxylic acid, reference compound], the “stimulation of glutamine oxidation” value with islets (100 islets, 2 mM glutamine, FIG. 7A) is recorded as “dose-dependently stimulated”.
Turning to `[N-]=[N+]=CC(=O)CC[C@H](N)C(=O)O` [DON, 6-diazo-5-oxo-L-norleucine, reference compound], the “effect on 10 mM BCH-stimulated glutamine oxidation” value in the data set on islets (3 mM glutamine, FIG. 7B, 7C) was “blocks glutaminolysis to levels lower than the unstimulated β-cells at high concentrations”.
As to `O=C(O[C@@H]1Cc2c(O)cc(O)cc2O[C@@H]1c1ccc(O)c(O)c1)c1cc(O)c(O)c(O)c1` [ECG, (2R,3R)-2-(3,4-Dihydroxyphenyl)-3,4-dihydro-1 (2H)-benzopyran-3,5,7-triol 3-(3,4,5-trihydroxybenzoate)], the “soluble in organic solvents” value in data set [1] is “soluble”. Moreover, on Bovine GDH (bGDH), the “potent inhibitor of GDH activity” value is “potent inhibitors”.
On to `Oc1cc(O)c2c(c1)O[C@H](c1cc(O)c(O)c(O)c1)[C@H](O)C2` [EGC, epigallocatechin, reference compound], for which, in the data set on rat islets [2], the “sensitization of the β-cells to BCH” value is “slight sensitization”. Further, in the data set on rat islets [2] (FIG. 6A), the “effect on LSIS (BCH-induced insulin secretion)” value was “did not cause significant inhibition”. Besides, in the data set with rat islets [2] (FIG. 6B), the “effect on BCH-induced increase in respiration rates” value is reported as “nor did it have as strong of an effect on respiration as compared to EGCG”. Further, the “effect on GSIS” value in the data set on rat islets [3] was “neither EGC nor EGCG affected”. For the same compound, the “block of BCH stimulation of glutaminolysis (glutamine oxidation)” value with islets (20 μM, 2 mM glutamine, FIG. 7A) was “not”. Also, the “potentiation of GSIS” value in the data set on rat islets [4] (20 μM, 120 minute run-down, FIG. 11) is “not”. In addition, the “effect on KCl-stimulated release of insulin” value in the data set with rat islets [4] (30 mM KCl) is listed as “neither EGCG or EGC affected”. Also, the “sensitization of the cells at low glucose concentrations” value with rat islets [4] (FIG. 11, inset) is “slightly sensitize”. Also, at Bovine GDH (bGDH), the “potent inhibitor of GDH activity” value was “not”.
